The results in this text go back to PMC11653243, “Enhancing Phototoxicity in BODIPY‐Perylene Charge Transfer Dyads by Combined Iodination and Mesylation” (Chemistry (Weinheim an Der Bergstrasse, Germany), 2024).

“And” between values parts separate entries of the source, which are not always exact repeats. Identical values can stand only once.

Series [1] in a line: DPBF singlet oxygen (ROS) scavenger assay in methanol. The note with it: 470 nm LED, t=210 seconds relative to t=0, 10 mM DPBF in methanol, absorbance matched. The protocol: Given the impact of the heavy iodine atom on phototoxicity, to confirm if the origin of toxicity is triplet sensitised formation of ^1O2 we carried out ROS scavenger studies with 1,3‐diphenylisobenzofuran (DPBF, Figure 6C). Stock solutions of BODIPY‐perylene were prepared under absorbance matched conditions and a BODIPY‐DPBF solution prepared at concentration of 10 mM DPBF in methanol. The BODIPY‐DPBF solution was irradiated (470 nm) from 0–210 seconds and the absorption spectra recorded every 30 seconds. In the presence of ^1O2, DPBF forms an unstable peroxide, endoperoxide 1, that readily decomposes to colourless 1,2‐dibenzoylbenzene (DBB).[51] This change is detected spectrophotometrically with depletion of DPBF absorbance at 410 nm. The DPBF assay results are represented in Figure 6C as % decrease in absorbance at 410 nm. The values are determined at t=210 seconds relative to the absorbance values recorded prior to irradiation at t=0. […] As expected, the most phototoxic compound, MB2PI, generates the most ^1O2 upon irradiation with a 470 nm LED with a 52 % decrease in DPBF absorbance at 410 nm. […] DPBF is known to be sensitive to light, therefore, to mitigate photodegradation of affecting the assay results, exposure was limited to 3.5 minutes where DPBF absorbance decrease at 410 nm is <10 % at this time point. […] Due to the photo‐vulnerability of DPBF under visible irradiation, this study is limited by a short experimental window and ignores any ROS generation over longer irradiation periods. […]
Figure 6 ROS dye H2DCFDA (A) prior to irradiation and (B) after 5 minutes of continuous irradiation confirming ROS generation. […] A graph of ROS scavenger DPBF response to irradiation of the BODIPY‐perylene compounds is shown in (C) where a decrease in absorbance at 410 nm confirms ^1O2 generation upon photoactivation. Studies were performed with the BODIPY‐perylene compounds under absorbance matched conditions. Values shown indicate the % decrease in absorbance values recorded at t=0 and t=210 seconds and is reported as mean±standard deviation. […]
To assess singlet oxygen (1O2) production and determine if the phototoxicity of our BODIPY complexes was caused by the generation of reactive oxygen species (ROS), a 1O2 scavenger study was completed using 1,3-diphenylisobenzofuran (DPBF). A 20 mM solution of DPBF in methanol was prepared, and stocks of the BODIPY-perylene compounds in DMSO were prepared under absorbance matched concentrations, starting at a 30 µM concentration of each. Test solutions of 1:1, DPBF: BODIPY in methanol (final concentration of 10 mM DPBF) were added to a clear 96 well plate (Nunc) and absorbance was measured using a BMG LABTECH CLARIOstar plate reader. […]

For a further series, the system named is MCF‐7 cells. As to the kind of experiment: Cellular uptake and co-localisation by confocal microscopy. It counts as cell-based. The note with it: ER Tracker 1 µM, 45 min. The protocol: The intracellular uptake of the BODIPY derivatives was assessed in two mammalian cell lines, CHO (non‐cancer) and MCF‐7 (cancer). […] B2P and B2PI were studied following 4 h and 17 h incubation in MCF‐7 cells with 10 μM of each BODIPY derivative. A 17 h incubation was selected to allow for adequate cell uptake of the complex, ensuring sufficient brightness for confocal imaging while minimising cell toxicity.
Across all four compounds uptake of the BODIPYs led to extremely bright and highly punctate staining from within the cells. As all of the BODIPY‐perylene probes emit minimally from aqueous media including cell culture media (Figure S20) the bright emission is attributed to localisation of the complex to non‐aqueous domains, i. e. organelle membranes or to lipid droplets (LDs). To identify which, co‐localisation studies with targeted probes were completed. CHO and MCF‐7 cells were treated with B2P, B2PI, MB2P or MB2PI and co‐stained with specific organelle markers including LD probes; PyLa−C17Cer and BODIPY 493/503, an endoplasmic reticulum stain; ER Tracker Blue‐White and a lysosomal stain; LysoTracker Deep Red. Pyla‐C17Cer was previously published and localises in both the ER and LDs.[41] Cellular uptake of B2PI was recently reported in MCF‐7 cells, though localisation was not explored.[25]
MCF‐7 and CHO cells were treated with B2P, MB2P, B2PI or MB2PI for 17 h and co‐stained with a number of dyes for co‐staining including LysoTracker Deep Red, ER Tracker Blue/White, PyLa−C17Cer, BODIPY 493/503 and H2DCFDA. Cells were imaged in phenol red free media using a Leica DMi8 confocal microscope with a 63x or 100x oil immersion lens and a heated state at 37 °C.
Uptake in Live Cell Monolayers
CHO cells were incubated in 75cm2 cell culture flasks (Corning) with DMEM/F-12 Ham medium (Sigma-Aldrich) with L-glutamine and sodium bicarbonate supplemented with 10% fetal bovine serum (FBS) (Gibco) and 1% penicillin-streptomycin (Sigma-Aldrich). MCF-7 cells were incubated in 25cm2 cell culture flasks with RPMI-1640 medium (Sigma-Aldrich) with L-glutamine and sodium bicarbonate supplemented with 10% fetal bovine serum (FBS, Gibco) and 1% penicillin-streptomycin. Cells were incubated at 37 °C with 5% CO2 and detached from the flask at 90% confluency using a 1X Trypsin-EDTA solution (Sigma-Aldrich). Cells were counted using the EVE automated cell counter (NanoEnTek) and seeded at 1 x 10^5 cells per mL in a 4 or 8 chamber µ-slide (ibidi) for cell imaging and left for 24 h at 37 °C. Cells were rinsed with 1X PBS (Gibco) and stained with B2P or B2PI at 10 µM and MB2P or MB2PI at 30 µM for 17 h. Cells were washed twice with PBS and covered with phenol red free RPMI medium (Gibco) for imaging. […]

As for `CC1=C(c2ccc3c4cccc5cccc(c6cccc2c63)c54)C(C)=[N+]2C1=C(c1c(C)cc(C)cc1C)c1c(C)cc(C)n1[B-]2(F)F` [MB2P], the “decrease in DPBF absorbance at 410 nm” value in series [1] was 6%. For the same compound, the “Pearson Coefficient (r) with ER Tracker Blue/White” value with MCF‐7 cells is 0.54 ± 0.04 and ~0.5.
Regarding `CC1=C(c2ccc3c4cccc5cccc(c6cccc2c63)c54)C(C)=[N+]2C1=C(c1c(C)cc(C)cc1C)c1c(C)c(I)c(C)n1[B-]2(F)F` [MB2PI], the “decrease in DPBF absorbance at 410 nm” value in series [1] is recorded as 52%. In addition, the “Pearson Coefficient (r) with ER Tracker Blue/White” value in the series with MCF‐7 cells was 0.53 ± 0.04 and ~0.5.
On to `CC1=CC(C)=[N+]2C1=C(c1ccccc1)c1c(C)c(-c3ccc4c5cccc6cccc(c7cccc3c74)c65)c(C)n1[B-]2(F)F` [B2P], for which the “decrease in DPBF absorbance at 410 nm” value in series [1] is on record as 8%. Besides, the “Pearson Coefficient (r) with ER Tracker Blue/White” value in the series with MCF‐7 cells was determined as 0.14 ± 0.07.
As to `CC1=C(I)C(C)=[N+]2C1=C(c1ccccc1)c1c(C)c(-c3ccc4c5cccc6cccc(c7cccc3c74)c65)c(C)n1[B-]2(F)F` [B2PI], the “decrease in DPBF absorbance at 410 nm” value in series [1] is 31%. In the series on MCF‐7 cells, the “Pearson Coefficient (r) with ER Tracker Blue/White” value is recorded as 0.19 ± 0.05.
